Earlier results in patent US6054456A, “Substituted piperazine derivatives” (Merck Sharp & Dohme Ltd., priority 1995, dated 2000).

How the values were obtained:
[1] = tested on: human 5-HT1Dα and 5-HT1Dβ receptor subtypes; details: cf. WO-A-91/171174, Table 1
[2] = humans, therapeutic doses

CNS(=O)(=O)Cc1ccc2[nH]cc(CCN(C)C)c2c1 [sumatriptan]
discrimination between the human 5-HT1Dα and 5-HT1Dβ receptor subtypes [1]: barely discriminates between the human 5-HT1Dα and 5-HT1Dβ receptor subtypes | adverse events [2]: certain adverse cardiovascular events
